Laboratory results: PubChem BioAssay AID2305 (GlaxoSmithKline (GSK), 2010)

What follows are compounds tested on P. falciparum 3D7 growth, pLDH absorbance (assay: P. falciparum 3D7 growth inhibition, dose response, strain 3D7 (AID 2305)).

Structure (SMILES)	IC50 [nM]
COc1ccc(C=NNc2ccnc3cc(F)c(C)cc23)c2ccccc12	770
Cc1cc(CNCCCCCCCNCc2ccc(-c3ccccc3)cc2)ccc1O	490
N#Cc1cccc(C(=O)Nc2ccc(-c3ccc(CN4CCCC4)cc3)cc2)c1	1150
Cc1ccc(NC(=O)c2ccc(NCCCN3CC(C)CC(C)C3)c([N+](=O)[O-])c2)cc1F (centres undefined)	710
NC1=NC(c2ccccc2)(c2ccccc2)C(=O)N1CC1CCC1	750
Cc1cc(F)ccc1Oc1nc(Nc2ccc(N3CCOCC3)c(F)c2)nc2c1S(=O)(=O)CCC2	460
COCCNCc1cccc(-c2cc3nccc(Nc4ccc(Oc5ccccc5)cc4)c3cc2Cl)c1	1380
O=C(Nc1ccc(OC2CCN(Cc3ccc(F)cc3)CC2)c(Cl)c1)c1ccc(F)cc1	190
CNC(=O)c1cc(Nc2nnc(-c3ccc(C)c(S(=O)(=O)NC4CCCCC4)c3)c3ccccc23)ccc1OC	900
COc1c(C2CCN(CCCCNC(=O)c3ccc(-c4ccc(Cl)cc4)c(O)c3)CC2)ccc2c1CCCC2	230
CS(=O)(=O)CCNCc1nc(-c2ccc3c(=O)[nH]cnc3c2)cs1	1010
CCCCCCCCn1c2c(c(=N)c3c1CCC3)CCCC2	110
CCCCCN1CCCN(Cc2cccc(NC(=O)c3ccc4ccccc4c3)c2)CC1	1220
COc1ccccc1C1CCN(C2CCC(NC(=O)/C=C/c3ccc(C(F)(F)F)cc3)CC2)CC1 (centres undefined)	1160
CCCCNc1c(C(=O)OCC)c(C)nc2c1[nH]c1ccccc12	680
Cc1ccccc1NC(=O)C1CSCN1C(=O)OCc1ccccc1 (centres undefined)	980
CCc1cn2c3c(cc(C(=O)N[C@@H](Cc4ccccc4)[C@H](O)CNCc4ccccc4C)cc13)N(C)S(=O)(=O)CC2	270
Oc1cccc(-c2nc3ccc(C4=N[C@H]5CCCC[C@H]5N4)cc3[nH]2)c1	590
COc1cc2c(cc1N1CCN(C)CC1)N(C(=O)Nc1ccc(-c3ccncc3)c(Cl)c1Cl)CC2	610
C=CCc1ccc(C2CCN(CCCCNC(=O)c3ccc(NC(=O)c4ccc(Cl)cc4)cc3)CC2)cc1	1120
O=C(NCc1ccc(F)cc1)c1cnc(N2CCN(c3ccncc3)CC2)c(Cl)c1	1390
Cn1nc2ccc3ccccc3c2nc1=N	770
COc1ccccc1C1CCN(CCCCNC(=O)c2ccc(NC(=O)c3ccc(Cl)cc3)cc2)CC1	240
CCCNCc1ccc(-c2ccc(CN(Cc3cnc(C)cn3)C(=O)/C=C/c3ccccc3C)cc2)nc1	920
CC(Cc1ccc(Oc2ccccc2)cc1)NCC(O)c1cccc(C(F)(F)F)c1 (centres undefined)	670

Structure (SMILES)	IC50 [nM]
CN1CCC(N2CCN(Cc3cccc(-c4ccc(-c5nc6ccc(C(F)(F)F)cc6[nH]5)cc4)c3)CC2)CC1	140
COc1cc(C)nc2ccc(NC(=O)Nc3ccc4nc(C)cc(OC)c4c3)cc12	550
COc1ccc2nc(C)cc(NN=Cc3cc(C)ccc3O)c2c1	140
CN(C)c1cccc2c1nc(-c1ccco1)n2CC1CCCN1 (centres undefined)	970
Cc1cccn2c(=O)c3cc(C(=O)NC4CCCCC4)c(=N)n(CCCn4ccnc4)c3nc12	750
CN(C)c1ccc(CN2CCCCC(NC(=O)c3cc(-c4ccccc4Cl)cs3)C2)cc1 (centres undefined)	1060
O=c1cc(NCCCNCc2cc(Cl)cc(Cl)c2OCc2ccc(Cl)cc2)[nH]c2ccccc12	690
CC(C)c1ccc(NC(=O)c2ccc(C(=O)NC3CCN(CC4CCCCC4)CC3)cc2)cc1	650
CCCO[C@H](C(=O)OC)[C@@H](CC1Cc2ccccc2C1)C(=O)NCCC1=CCCCC1	970
Cc1cc(C(=O)Nc2ccc(OCc3ccccc3)cc2)on1	990
Cc1csc(-c2ncc(OC[C@@H](N)Cc3ccccc3)cc2-c2ccc3n[nH]c(C)c3c2)c1	840
CCN(CC)CCCC(C)Nc1c(-c2ccc(Br)cc2)cnc2ccccc12 (centres undefined)	700
N#Cc1ccc(NC(=O)NC2CCN(CCCCCNC(=O)/C=C/c3ccc(Cl)c(Cl)c3)CC2)cc1	800
O=S(=O)(NCCN1CCCC1)c1ccc(-c2ccc(CNCc3ccsc3)cc2)cc1F	810
C[C@@H]1CN(C(c2cccc(O)c2)c2cccc(C(=O)N(C)c3cccc(F)c3)c2)[C@@H](C)CN1C(c1cccc(O)c1)c1cccc(C(=O)N(C)c2cccc(F)c2)c1 (some centres undefined)	920
CN(C)CCCOc1ccc(CNCc2cccc(Oc3ccc(Cl)cc3)c2)cc1	820
Cc1cccc2[nH]c(-c3cccc(-c4ccc(NC(=O)C(=O)c5cccn5C)cc4)c3)nc12	380
c1csc(-c2nc(N3CCCCC3)ncc2-c2ccsc2)n1	140
c1ccn2c(-c3ncnc(NCc4ccc5c(c4)CCO5)n3)cnc2c1	1190
Cc1cccc2[nH]c(-c3ccc(-c4cccc(CNCCCN5CCCC5=O)c4)s3)nc12	590
CCn1c(Sc2ccc([N+](=O)[O-])c(C#N)c2)nnc1-c1cccc(Cl)c1	870
O=S(=O)(NCCN1CCCC1)c1ccc(-c2cccc(CNCc3ccsc3)c2)s1	900
Nc1c2c(nc3ccc(NC(=O)c4ccc([N+](=O)[O-])cc4)cc13)CCCC2	240
CC(C)(CNCc1ccccc1)c1nc(-c2ccc(Cl)c(O)c2)c(-c2ccncc2)[nH]1	540
